Data: patent EP0326329B1, “Quinazoline derivatives useful as insecticides” (Dow AgroSciences LLC, priority 1988, dated 1989)

What was measured:
Format in all cases: in vivo
[1] = tested on: Botrytis cinerea (gray mold); experiment: Greenhouse Test 1, foliar spray fungicide screen (GRAY MOLD), host grape berries; conditions: disease control rating, 400 ppm (+++ at 100 ppm)
[2] = tested on: Puccinia recondita tritici (leaf rust); experiment: Greenhouse Test 1, foliar spray fungicide screen (LEAF RUST), host wheat; conditions: disease control rating, 400 ppm (+++ at 100 ppm)
[3] = tested on: southern armyworm (Spodopetra eridania Cramer); experiment: Mite/insect screen, sprayed squash leaves (SAW); conditions: percent mortality; for mortality at 200 ppm / mortality at 400 ppm: Spodoptera eridania, read-out: SAW RESULTS %; for mortality at 400 ppm: spray rate 400 ppm
Method: (§1) The compounds of Examples 1-203 were tested for miticidal and insecticidal activity in the following mite/insect screen.
(§2) Each test compound was formulated by dissolving the compound in acetone/alcohol (50:50) mixture containing 23 g of "TOXIMUL R" (sulfonate/nonionic emulsifier blend) and 13 g of "TOXIMUL S" (sulfonate/nonionic emulsifier blend) per liter. These mixtures were then diluted with water to give the indicated concentrations.
(§3) Other plants in the same treatment pot were left uninfested. The leaves were then sprayed with 5 ml of test solution using a DeVilbiss atomizing sprayer at 10 psi. Both surfaces of the leaves were covered until runoff, and then allowed to dry for one hour. Two uninfested leaves were then excised and placed into a Petri dish containing larval southern armyworm (Spodopetra eridania Cramer).
(§4) After standard exposure periods, percent mortality and phytotoxicity were evaluated. […]

[4] = tested on: melon aphids (Aphis gossypii Glover); experiment: Mite/insect screen, sprayed squash cotyledons (MA); conditions: Aphis gossypii, percent mortality, read-out: MA RESULTS %; for mortality at 200 ppm: spray rate 200 ppm; for mortality at 400 ppm: spray rate 400 ppm
Method: as §1, §2, §3, §4

[5] = tested on: Twospotted spider mites (Tetranychus urticae Koch); experiment: Mite/insect screen, sprayed squash cotyledons (SM); conditions: Tetranychus urticae, percent mortality, read-out: SM RESULTS %; for mortality at 200 ppm: spray rate 200 ppm; for mortality at 400 ppm: spray rate 400 ppm
Method: as §1, §2, §3, §4

[6] = tested on: Southern corn rootworm (Diabrotica undecimpuctata howardi Barber); experiment: Mite/insect screen, soil treatment (CRW); conditions: percent mortality, soil treatment; for mortality at 12 ppm / mortality at 24 ppm: Diabrotica, read-out: CRW RESULTS %; for mortality at 24 ppm: CRW rate 24.00 ppm
Method: as §1, §2
Activity on Southern corn rootworm (Diabrotica undecimpuctata howardi Barber) was evaluated by adding two ml of tap water, a presoaked corn seed, and 15 g of dry sandy soil to a one ounce plastic container. The soil was treated with 1 mL of test solution containing a pre-determined concentration of test compound. After six to 12 hours of drying, five 2-3 instar corn rootworm larvae were added to the individual cups, which were then capped and held at 23°C.
as §4

[7] = tested on: Pyricularia oryzae (rice blast); conditions: disease control rating, foliar spray, host rice; 400 ppm (+++ at 100 ppm)
[8] = tested on: Erysiphe graminis tritici (powdery mildew); experiment: Greenhouse Test 1, foliar spray fungicide screen (POWD MDEW), host wheat; conditions: disease control rating, 400 ppm (+++ at 100 ppm)
[9] = tested on: Pseudoperonospora cubensis (downy mildew); experiment: Greenhouse Test 1, foliar spray fungicide screen (DOWN MDEW), host squash; conditions: disease control rating, 400 ppm (+++ at 100 ppm)

Row | Structure (SMILES) | GRAY MOLD [1] | LEAF RUST [2] | mortality at 200 ppm ([3]; spray rate 200 ppm) [%] | mortality at 400 ppm [3] [%] | mortality at 200 ppm [4] [%] | mortality at 400 ppm [4] [%] | mortality at 200 ppm [5] [%] | mortality at 400 ppm [5] [%] | mortality at 12 ppm ([6]; CRW rate 12.00 ppm) [%] | mortality at 24 ppm [6] [%] | RICE BLAST [7] | POWD MDEW [8] | DOWN MDEW [9] | SAW RESULTS % ([3]; spray rate 200 ppm) [%] | CRW RESULTS % ([6]; CRW rate 12.00 ppm) [%]
1 | CC(C)c1ccc(CCNc2ncnc3c(F)cccc23)cc1 [Example 96, 8-fluoro-N-[2-[4-(i-propyl)phenyl]ethyl]-4-quinazolinamine] | - (- = 0-19% control at 400 ppm) | +++ (+++ = 90-100% control at 100 ppm) | 100 | 100 | 50 | 0 | 50 | 0 | 0 | 0 | +++ (+++ = 90-100% control at 100 ppm) | +++ (+++ = 90-100% control at 100 ppm) | +++ (+++ = 90-100% control at 100 ppm) | – | –
2 | CC(C)Cc1ccc(C(C)COc2ncnc3ccccc23)cc1 (stereo not drawn) [Example 167, 4-[2-[4-(2-methylpropyl)phenyl]propoxy]quinazoline] | - (- = 0-19% control at 400 ppm) | + (+ = 20-89% control at 400 ppm) | 0 | 0 | 90 | 80 | 90 | 80 | 0 | 0 | +++ (+++ = 90-100% control at 100 ppm) | + (+ = 20-89% control at 400 ppm) | - (- = 0-19% control at 400 ppm) | – | –
3 | Oc1cccc(CCOc2ncnc3ccccc23)c1 [Example 111, 4-[2-(3-hydroxyphenyl)ethoxy]quinazoline] | - (- = 0-19% control at 400 ppm) | + (+ = 20-89% control at 400 ppm) | 0 | 0 | 0 | 0 | 0 | 0 | 0 | 0 | ++ (++ = 90-100% control at 400 ppm) | - (- = 0-19% control at 400 ppm) | + (+ = 20-89% control at 400 ppm) | – | –
4 | CC(C)Cc1ccc(C(C)COc2ncnc3c(F)cccc23)cc1 (stereo not drawn) [Example 113, 8-fluoro-4-[2-[4-(2-methylpropyl)phenyl]propoxy]quinazoline] | - (- = 0-19% control at 400 ppm) | +++ (+++ = 90-100% control at 100 ppm) | 0 | 40 | 100 | 0 | 100 | 0 | 0 | 0 | +++ (+++ = 90-100% control at 100 ppm) | + (+ = 20-89% control at 400 ppm) | +++ (+++ = 90-100% control at 100 ppm) | – | –
5 | Cc1cccc(CCOc2ncnc3ccccc23)c1 [Example 97, 4-[2-(3-methylphenyl)ethoxy]quinazoline] | - (- = 0-19% control at 400 ppm) | +++ (+++ = 90-100% control at 100 ppm) | – | 0 | – | 0 | – | 0 | – | 0 | ++ (++ = 90-100% control at 400 ppm) | +++ (+++ = 90-100% control at 100 ppm) | ++ (++ = 90-100% control at 400 ppm) | – | –
6 | CCOc1ccc(CCOc2ncnc3ccccc23)cc1OC [Example 21, 4-[2-(4-ethoxy-3-methoxyphenyl)ethoxy]quinazoline] | - (- = 0-19% control at 400 ppm) | +++ (+++ = 90-100% control at 100 ppm) | – | 0 | – | 80 | – | 60 | – | 100 | +++ (+++ = 90-100% control at 100 ppm) | +++ (+++ = 90-100% control at 100 ppm) | +++ (+++ = 90-100% control at 100 ppm) | – | –
7 | CC(C)Oc1cccc(CCOc2ncnc3ccccc23)c1 [Example 146, 4-[2-[3-(1-methylethoxy)phenyl]ethoxy]quinazoline] | + (+ = 20-89% control at 400 ppm) | ++ (++ = 90-100% control at 400 ppm) | 0 | 0 | 100 | 80 | 100 | 60 | 0 | 0 | +++ (+++ = 90-100% control at 100 ppm) | ++ (++ = 90-100% control at 400 ppm) | +++ (+++ = 90-100% control at 100 ppm) | – | –
8 | Fc1cccc2c(OCCc3cccc(C(F)(F)F)c3)ncnc12 [Example 133, 8-fluoro-4-[2-[3-(trifluoromethyl)phenyl]ethoxy]quinazoline] | - (- = 0-19% control at 400 ppm) | +++ (+++ = 90-100% control at 100 ppm) | 0 | 0 | – | 100 | – | 100 | 0 | 100 | +++ (+++ = 90-100% control at 100 ppm) | +++ (+++ = 90-100% control at 100 ppm) | + (+ = 20-89% control at 400 ppm) | 0 | 0
9 | CC(C)(C)c1ccc(CCOc2nc(C(Cl)(Cl)Cl)nc3ccccc23)cc1 [Example 172, 2-(trichloromethyl)-4-[2-[4-(t-butyl)phenyl]ethoxy]quinazoline] | - (- = 0-19% control at 400 ppm) | - (- = 0-19% control at 400 ppm) | 0 | 0 | 40 | 0 | 0 | 0 | 100 | 0 | - (- = 0-19% control at 400 ppm) | - (- = 0-19% control at 400 ppm) | - (- = 0-19% control at 400 ppm) | – | –
10 | Clc1ccccc1CCOc1ncnc2ccccc12 [Example 11, 4-[2-(2-chlorophenyl)ethoxy]quinazoline] | - (- = 0-19% control at 400 ppm) | ++ (++ = 90-100% control at 400 ppm) | – | 0 | – | 0 | – | 0 | – | 0 | - (- = 0-19% control at 400 ppm) | ++ (++ = 90-100% control at 400 ppm) | +++ (+++ = 90-100% control at 100 ppm) | – | –
11 | CC(C)(C)c1ccc(CCOc2ncnc3ccc(Cl)cc23)cc1 [Example 174, 6-chloro-4-[2-[4-(t-butyl)phenyl]ethoxy]quinazoline] | - (- = 0-19% control at 400 ppm) | - (- = 0-19% control at 400 ppm) | 0 | 0 | 0 | 0 | 80 | 40 | 0 | 100 | ++ (++ = 90-100% control at 400 ppm) | + (+ = 20-89% control at 400 ppm) | ++ (++ = 90-100% control at 400 ppm) | – | –
12 | CC(C)c1ccccc1CCOc1ncnc2c(F)cccc12 [Example 195, 8-fluoro-4-[2-[2-(i-propyl)phenyl]ethoxy]quinazoline] | - (- = 0-19% control at 400 ppm) | +++ (+++ = 90-100% control at 100 ppm) | 0 | 0 | 80 | 0 | 0 | 0 | 0 | 0 | +++ (+++ = 90-100% control at 100 ppm) | +++ (+++ = 90-100% control at 100 ppm) | ++ (++ = 90-100% control at 400 ppm) | – | –
